Structures can show the parent of a compound that is named as a salt.
Columns and labels:
[1] = degradation during extrusion in the hot state; format: physicochemical; settings: extrusion in the hot state at temperatures of from 95° C. to 110° C.
Procedure: Moreover, and in surprising manner, it has been shown that the perindopril tert-butylamine salt, which is usually unstable to temperature or in association with certain acidic excipients, was not degraded, or only slightly degraded, during extrusion in the hot state carried out at temperatures of from 95° C. to 110° C. (less than 3% degradation).

[2] = stability study over 6 months; format: physicochemical; settings: variable temperature and relative humidity conditions, packaging of the aluminium/PVC blister type

degradation [1]: less than 3%
stability [2]: excellent stability
SMILES: CCC[C@H](N[C@@H](C)C(=O)N1[C@H](C(=O)O)C[C@@H]2CCCC[C@@H]21)C(=O)OCC [perindopril tert-butylamine salt, perindopril]

Reference: patent US20040115227A1, “Thermoformable solid pharmaceutical composition for controlled release of perindopril” (priority 2000, published 2004)
